Data set [1] deals with isolated ileum of guinea-pig. The data set is described as follows: Test for antihistaminergic effects on the isolated ileum of guinea-pig (histamine contraction, in vitro). Set-up: species or system guinea-pig (male Hartly-strain). Conditions: Cavia porcellus, 0.05 h; depressing ratio of 80% or more of histamine contraction; read-out: Antihistaminergic activity: MED. The procedure: (§1) Male Hartly-strain guinea-pigs weighing about 250 g are killed and the abdomen is opened. The part (2-3 cm in length) of the ileum 10 cm away from the caecum to the pylorus is cut off as a preparation. The preparation is suspended with serre-fine in a Magnus bath containing 10 ml of Tyrode's solution at 32±1° C. under an air bubble. The contraction of the ileum is recorded on Kymograph through hebel when 0.1 ml of acetylcholine at a concentration of 10^-3 g/ml is added to the Tyrode's solution.
(§2) On the other hand, 3 minutes after administration of the test compounds, the same procedure as mentioned above is carried out to record the contraction.
In this test, 0.1 ml of histamine at a concentration of 5×10^-3 g/l is used.

Data set [2] deals with male dd-strain rats. The data set is described as follows: Acute toxicity test (minimum lethal dose). It counts as in vivo. As to conditions: mortality for 7 days. The procedure:
Groups of male dd-strain rats (each group consisting of five rats) weighing 20±1 g were used. The compounds of the present invention were administered orally (po: 0.3 mg/g) or intraperitoneally (ip: 0.1 mg/g). The MLD (minimum lethal dose) was calculated from the mortality for 7 days after the administration to obtain the results given in Table 1.

Data set [3] has as its system blood platelets (platelet-rich plasma). The data set can be described thus: Test for the inhibition of platelet aggregation (collagen-induced, platelet-rich plasma). Format: cell-based, male white rabbits. Conditions: Oryctolagus cuniculus, Platelet, 0.05 h; depressing ratio of 50% of collagen-induced aggregation; compound 3 minutes before; read-out: Antiplatelet aggregation activity: MED. The procedure:
In this test, 9 vols. of blood are sampled from the caroted artery of male white rabbits weighing 2 to 2.5 kg and placed in a silicon-coated flask containing 1 vol. of 3.8% sodium citrate. The thus obtained blood is centrifuged at 1,000 rpm for 15 minutes to obtain platelet-rich plasma. The aggregation of the blood platelets is observed using an aggregometer, when collagen is added to the platelet-rich plasma to the extent of the final concentration that 50% of platelet aggregation is caused in the presence of 100 γ/ml of aspirin. On the other hand, 3 minutes after administration of the test compounds to the platelet-rich plasma, the same procedure as mentioned above is carried out to observe the aggregation of blood platelet. The test compounds showing a depressing ratio of 50%, compared with the inhibition of aggregation by collagen alone, are concluded to have antiplatelet aggregation activity.

Data set [4] has as its system isolated ileum of guinea-pig. The data set is described as follows: Test for anticholinergic effects on the isolated ileum of guinea-pig (acetylcholine contraction, in vitro). Also noted: species or system guinea-pig (male Hartly-strain). Conditions: Cavia porcellus, 0.05 h; depressing ratio of 80% or more of acetylcholine contraction; compound 3 minutes before; read-out: Anticholinergic activity: MED (minimum effective dose). The procedure: as §1, §2

The nature of data set [5]: Antiasthmatic activity. It counts as in vivo. Conditions: po; read-out: Antiasthmatic activity: MED.

Regarding `Cc1ccc2c(c1)C(N1CCN(CCO)CC1)c1ccccc1CO2` (centres unmarked) [Compound 37, 2-methyl-11-{4-(2-hydroxyethyl)-1-piperazinyl}-6,11-dihydrodibenz[b,e]oxepin], the minimal effective concentration in data set [1] amounted to 10 µg/mL; in data set [3], 50 µg/mL; in data set [4], 10 µg/mL. Besides, the “Acute toxicity: MLD (minimum lethal dose)” value (from here on “Acute toxicity: MLD”) in data set [2] (ip) is on record as greater than 100 mg/kg; in data set [2] (po) it was greater than 300 mg/kg.
For `Cc1ccc2c(c1)C(NCCc1ccccn1)c1ccccc1CO2` (centres unmarked) [Compound 36, 2-methyl-11-{2-(2-pyridyl)ethyl}amino-6,11-dihydrodibenz[b,e]oxepin], the minimal effective concentration amounted to 3 µg/mL in data set [1], 100 µg/mL in data set [3] and 10 µg/mL in data set [4]. Also, the “Acute toxicity: MLD” value in data set [2] (ip) is 100 mg/kg; in data set [2] (po), 200 mg/kg.
In the case of `CN1CCN(C2c3ccccc3COc3c(-c4ccccc4)cccc32)CC1` (centres unmarked) [Compound 47, 4-phenyl-11-(4-methyl-1-piperazinyl)-6,11-dihydrodibenz[b,e]oxepin], the figures for the minimal effective concentration in data set [1], in data set [3] and in data set [4] were 10 µg/mL, 10 µg/mL and 3 µg/mL, respectively. Moreover, the “Acute toxicity: MLD” value in data set [2] (ip) turned out to be 100 mg/kg; in data set [2] (po) it was 200 mg/kg.
Take `CCN(CC)CCCNC1c2ccccc2COc2ccc(Cl)cc21` (centres unmarked) [Compound 5, 2-chloro-11-{3-(diethylamino)propyl}amino-6,11-dihydrodibenz[b,e]oxepin]: the minimal effective concentration in data set [1] was found to be 1 µg/mL; in data set [3], 20 µg/mL; in data set [4], 1 µg/mL. The “Acute toxicity: MLD” value in data set [2] (ip) is greater than 100 mg/kg; in data set [2] (po) it was 300 mg/kg.
For the compound `CCc1ccc2c(c1)C(NC1CC(C)(C)NC(C)(C)C1)c1ccccc1CO2` (centres unmarked) [Compound 63, 2-ethyl-11-{4-(2,2,6,6-tetramethyl)piperidinyl}amino-6,11-dihydrodibenz[b,e]oxepin], the minimal effective concentration was 3 µg/mL in data set [1], 10 µg/mL in data set [3] and 3 µg/mL in data set [4]. Further, the “Acute toxicity: MLD” value in data set [2] (ip) is 100 mg/kg; in data set [2] (po) it was 200 mg/kg.
Take `CCN1CCCC(NC2c3ccccc3COc3ccc(C)cc32)C1` (centres unmarked) [Compound 27, 2-methyl-11-(1-ethyl-3-piperidyl)amino-6,11-dihydrodibenz[b,e]oxepin]: the minimal effective concentration in data set [1] was found to be 10 µg/mL; in data set [3], 100 µg/mL; in data set [4], 1 µg/mL. Besides, the “Acute toxicity: MLD” value in data set [2] (ip) is on record as greater than 100 mg/kg; in data set [2] (po) it was 300 mg/kg.
In the same order, the values of `CCN(CC)CCCNC1c2ccccc2COc2ccc(F)cc21` (centres unmarked) [Compound 3, 2-fluoro-11-{3-(diethylamino)propyl}amino-6,11-dihydrodibenz[b,e]oxepin] are 10 µg/mL, 20 µg/mL, 10 µg/mL, greater than 100 mg/kg and greater than 300 mg/kg.
The matching figures for `c1ccc(-c2cccc3c2OCc2ccccc2C3NC2CN3CCC2CC3)cc1` (centres unmarked) [Compound 57, 4-phenyl-11-(3-quinuclidinyl)amino-6,11-dihydrodibenz[b,e]oxepin]: 3 µg/mL, 10 µg/mL, 3 µg/mL, 100 mg/kg and greater than 300 mg/kg.
With `CCc1ccc2c(c1)C(N1CCN(CCN)CC1)c1ccccc1CO2` (centres unmarked) [Compound 45, 2-ethyl-11-{4-(2-aminoethyl)-1-piperazinyl}-6,11-dihydrodibenz[b,e]oxepin], the minimal effective concentration was found to be 10 µg/mL in data set [1], 100 µg/mL in data set [3] and 10 µg/mL in data set [4]. Moreover, the “Acute toxicity: MLD” value in data set [2] (ip) is on record as 100 mg/kg; in data set [2] (po), greater than 300 mg/kg.
On to `CCN(CC)CCNC1c2ccccc2COc2ccc(Cl)cc21` (centres unmarked) [Compound 10, 2-chloro-11-{2-(diethylamino)ethyl}amino-6,11-dihydrodibenz[b,e]oxepin], for which the “Acute toxicity: MLD” value in data set [2] (ip) is greater than 100 mg/kg; in data set [2] (po) it was greater than 300 mg/kg. In addition, the minimal effective concentration in data set [3] is 2 µg/mL. Also, in data set [5], the minimal effective dose is 100 mg/kg.
Consider `c1ccc(-c2ccc3c(c2)C(NC2CN4CCC2CC4)c2ccccc2CO3)cc1` (centres unmarked) [Compound 55, 2-phenyl-11-(3-quinuclidinyl)amino-6,11-dihydrodibenz[b,e]oxepin], for which the results for the minimal effective concentration in data set [1], in data set [3] and in data set [4] were 1 µg/mL, 20 µg/mL and 3 µg/mL, respectively. For the same compound, the “Acute toxicity: MLD” value in data set [2] (ip) is reported as greater than 100 mg/kg; in data set [2] (po), greater than 300 mg/kg.
With `CCc1ccc2c(c1)C(NCCCN(CC)CC)c1ccccc1CO2` (centres unmarked) [Compound 2, 2-ethyl-11-{3-(diethylamino)propyl}amino-6,11-dihydrodibenz[b,e]oxepin], the minimal effective concentration in data set [1] was 1 µg/mL; in data set [3] it was 1 µg/mL; in data set [4] it was 10 µg/mL. Also, the “Acute toxicity: MLD” value turned out to be 100 mg/kg in data set [2] (ip) and 300 mg/kg in data set [2] (po).
Regarding `CCN(CC)CCCNC1c2ccccc2COc2ccc(C)cc21` (centres unmarked) [Compound 4, 2-methyl-11-{3-(diethylamino)propyl}amino-6,11-dihydrodibenz[b,e]oxepin], the values for the minimal effective concentration in data set [1], in data set [3] and in data set [4] were 10 µg/mL, 20 µg/mL and 10 µg/mL, respectively. Further, the “Acute toxicity: MLD” value in data set [2] (ip) was 100 mg/kg; in data set [2] (po), 300 mg/kg.
Regarding `CCN(CC)CCCNC1c2ccccc2COc2c(C)cccc21` (centres unmarked) [Compound 6, 4-methyl-11-{3-(diethylamino)propyl}amino-6,11-dihydrodibenz[b,e]oxepin], the results for the minimal effective concentration in data set [1], in data set [3] and in data set [4] were 10 µg/mL, 20 µg/mL and 3 µg/mL, respectively. Moreover, the figures for the “Acute toxicity: MLD” value in data set [2] (ip) and in data set [2] (po) were 100 mg/kg and 300 mg/kg, respectively.
For the compound `CN(C)CCCNC1c2ccccc2COc2ccc(Cl)cc21` (centres unmarked) [Compound 50, 2-chloro-11-{3-(dimethylamino)propyl}amino-6,11-dihydrodibenz[b,e]oxepin], the minimal effective concentration turned out to be 3 µg/mL in data set [1], 50 µg/mL in data set [3] and 10 µg/mL in data set [4]. For the same compound, the “Acute toxicity: MLD” value is reported as greater than 100 mg/kg in data set [2] (ip) and 200 mg/kg in data set [2] (po).
The matching figures for `Cc1ccc2c(c1)C(NCCN1CCNCC1)c1ccccc1CO2` (centres unmarked) [Compound 25, 2-methyl-11-{2-(1-piperazinyl)ethyl}amino-6,11-dihydrodibenz[b,e]oxepin]: 10 µg/mL, 20 µg/mL, 10 µg/mL, greater than 100 mg/kg and greater than 300 mg/kg.
On to `CCc1ccc2c(c1)C(NCCCN(C)C)c1ccccc1CO2` (centres unmarked) [Compound 15, 2-ethyl-11-{3-(dimethylamino)propyl}amino-6,11-dihydrodibenz[b,e]oxepin], for which the minimal effective concentration in data set [1] was determined as 3 µg/mL; in data set [3], 20 µg/mL; in data set [4], 3 µg/mL. Further, the “Acute toxicity: MLD” value in data set [2] (ip) is greater than 100 mg/kg; in data set [2] (po), greater than 300 mg/kg.
On to `CN(C)CCCNC1c2ccccc2COc2ccc(F)cc21` (centres unmarked) [Compound 49, 2-fluoro-11-{3-(dimethylamino)propyl}amino-6,11-dihydrodibenz[b,e]oxepin], for which the minimal effective concentration stood at 1 µg/mL in data set [1], 50 µg/mL in data set [3] and 3 µg/mL in data set [4]. Further, the “Acute toxicity: MLD” value is recorded as greater than 100 mg/kg in data set [2] (ip) and greater than 300 mg/kg in data set [2] (po).

These data come from US4396550A, “Dibenz [b,e] oxepin derivatives” (Kyowa Hakko Kogyo Co., Ltd., priority 1980, dated 1983).
